SMILES strings stand for the structures. Non-standard residues stand in square brackets, D forms with d. Residues, ends and D or L forms follow the SMILES beside them. Gly(octyl) = CCCCCCCC[C@H](N)C(=O)O; hTyr = N[C@@H](CCc1ccc(O)cc1)C(=O)O

For orientation: IC50 means the concentration that gives 50% inhibition.

Format in all cases: biochemical
Test [1] concerns the target T1, human neutrophil elastase (Homo sapiens, UniProt P08246).
T1 construct: purchased Serva Electrophoresis, Germany
T1 sequence (P08246 30-267): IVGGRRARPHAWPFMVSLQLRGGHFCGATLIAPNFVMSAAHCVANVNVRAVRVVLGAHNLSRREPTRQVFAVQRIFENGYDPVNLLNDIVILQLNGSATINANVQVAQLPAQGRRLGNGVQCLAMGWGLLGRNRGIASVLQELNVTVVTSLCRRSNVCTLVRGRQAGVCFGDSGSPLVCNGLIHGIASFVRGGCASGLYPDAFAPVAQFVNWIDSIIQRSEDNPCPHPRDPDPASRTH
In words: Inhibition of human neutrophil elastase (MeOSuc-AAPV-pNA hydrolysis). To be noted: 10 nM enzyme, 0.3 mM substrate, 37° C., pH 8; read-out: Human neutrophil elastase (hNE) IC50. The protocol: 2.2. Inhibition of Human Neutrophil Elastase
The ability of the peptides of the invention to inhibit the hydrolysis activity of human neutrophil elastase (Serva Electrophoresis, Germany) using the synthetic tetrapeptidic substrate MeOSuc-AAPV-pNA (Bachem, Switzerland) was determined as follows:
The above substrate (0.3 mM) and human neutrophil elastase (10 nM) were incubated at 37° C. with serial dilutions of the peptides (1% DMSO final) in assay buffer (50 mM Tris, pH 8, 300 mM NaCl, 0.01% Tween20). The release of pNA was followed by monitoring the change in absorbance at 405 nm for 30 minutes. Control assays with the same assay set-up as above, but without peptide, ran linearly. The dose-response data were fitted to the 4-parameter Hill equation providing the IC50 value using Graphpad (Prism 5).

The next test deals with T2, human proteinase 3 (Homo sapiens, UniProt P24158).
T2 construct: purchased Elastin Products Company, USA
T2 sequence (P24158 28-248): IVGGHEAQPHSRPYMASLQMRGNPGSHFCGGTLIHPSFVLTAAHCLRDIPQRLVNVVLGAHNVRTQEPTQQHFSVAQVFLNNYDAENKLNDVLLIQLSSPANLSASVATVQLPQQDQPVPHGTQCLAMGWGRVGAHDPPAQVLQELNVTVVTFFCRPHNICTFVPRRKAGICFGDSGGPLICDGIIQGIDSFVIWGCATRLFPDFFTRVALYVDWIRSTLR
As to the kind of experiment: Inhibition of human proteinase 3 (Boc-Ala-Ala-Nva-SBzl). The settings on record: for IC50: 10 nM enzyme, 1 mM substrate, 37° C., pH7.4, read-out: Human proteinase 3 (hPr3) IC50; for hNE/hPr3 selectivity: ratio of hPr3 IC50 to hNE IC50. How it is done:
2.4. Inhibition of Human Proteinase 3
The inactivation of human proteinase 3 (Elastin Products Company, USA) by the peptides of the invention using synthetic tripeptidic substrate Boc-Ala-Ala-Nva-SBzl (Elastin Products Company, USA) was determined as follows:
The above substrate (1 mM), 4,4′-dithiodipyridine (250 μM) and human proteinase 3 (10 nM) were incubated at 37° C. with serial dilutions of the peptides (0.5% DMSO final) in assay buffer (50 mM Tris, pH7.4, 150 mM NaCl, 0.01% Tween20). The reaction process was followed by monitoring the change in absorbance at 340 nm for 30 minutes. Control assays with the same assay set-up as above, but without peptide, ran linearly. The dose-response data were fitted to the 4-parameter Hill equation providing the IC50 value using Graphpad (Prism 5).

Test [2] deals with T3, porcine pancreatic elastase (Sus scrofa, UniProt P00772).
T3 construct: purchased Sigma, USA
In words: Inhibition of porcine pancreatic elastase (MeOSuc-AAA-pNA hydrolysis). The settings on record: for IC50: 15 nM enzyme, 1 mM substrate, 37° C., pH8, read-out: Porcine pancreatic elastase (PPE) IC50; for hNE/PPE selectivity: ratio of PPE IC50 to hNE IC50. The protocol: 2.3. Inhibition of Porcine Pancreatic Elastase
The ability of the peptides of the invention to inhibit the hydrolysis activity of porcine pancreatic elastase (Sigma, USA) using the synthetic tripeptidic substrate MeOSuc-AAA-pNA (Bachem, Switzerland) was determined as follows:
The above substrate (1 mM) and […] porcine pancreatic elastase (15 nM) were incubated at 37° C. with serial dilutions of the peptides (0.5% DMSO final) in assay buffer (50 mM Tris, pH8, 100 mM NaCl, 0.01% Tween20). The release of pNA was followed by monitoring the change in absorbance at 405 nm for 30 minutes. Control assays with the same assay set-up as above, but without peptide, ran linearly. The dose-response data were fitted to the 4-parameter Hill equation providing the IC50 value using Graphpad (Prism 5).

T3 sequence (P00772 27-266): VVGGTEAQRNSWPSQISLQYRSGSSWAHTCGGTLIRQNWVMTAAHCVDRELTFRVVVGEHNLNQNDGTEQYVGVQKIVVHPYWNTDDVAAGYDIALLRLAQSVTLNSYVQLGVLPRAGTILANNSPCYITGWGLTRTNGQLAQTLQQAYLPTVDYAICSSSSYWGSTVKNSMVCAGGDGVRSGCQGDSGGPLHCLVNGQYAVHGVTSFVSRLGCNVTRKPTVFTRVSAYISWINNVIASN

On to `CCCCCCCC[C@@H]1NC(=O)[C@@H]2CCCN2C(=O)[C@H]2CCCN2C(=O)[C@H](CC(N)=O)NC(=O)[C@H](CCCCN)NC(=O)[C@H](CCC(N)=O)NC(=O)[C@@H]2CCCN2C(=O)[C@@H]2CCCN2C(=O)[C@H]([C@@H](C)CC)NC(=O)[C@H](CO)NC(=O)[C@H](C)NC(=O)[C@H]([C@@H](C)O)NC(=O)[C@H](CCC(=O)O)NC1=O` [Example 1, Cyclo(-OctGly-Glu-Thr-Ala-Ser-Ile-Pro-Pro-Gln-Lys-Asn-^DPro-Pro-)] (cyclo([Gly(octyl)]ETASIPPQKN[dP]P)), for which, in test [1], the IC50 came to 5.3 nM. In addition, at human proteinase 3, the IC50 amounted to 1810 nM and the hNE/hPr3 selectivity was found to be 342. Moreover, in test [2], the IC50 is 1550 nM and the hNE/PPE selectivity is 292.

Take `CCCCCCCC[C@@H]1NC(=O)[C@@H]2CCCN2C(=O)[C@H]2CCCN2C(=O)[C@H]([C@@H](C)O)NC(=O)[C@H](CCCCN)NC(=O)[C@H](Cc2ccc(O)cc2)NC(=O)[C@@H]2CCCN2C(=O)[C@@H]2CCCN2C(=O)[C@H]([C@@H](C)CC)NC(=O)[C@H](CO)NC(=O)[C@H](C)NC(=O)[C@H]([C@@H](C)O)NC(=O)[C@H](CCC(=O)O)NC1=O` [Example 2, Cyclo(-OctGly-Glu-Thr-Ala-Ser-Ile-Pro-Pro-Tyr-Lys-Thr-^DPro-Pro-)] (cyclo([Gly(octyl)]ETASIPPYKT[dP]P)): the IC50 in test [1] came to 5.4 nM. Moreover, at human proteinase 3, the IC50 came out at 1520 nM and the hNE/hPr3 selectivity amounted to 282. Moreover, in test [2], the half-inhibitory concentration (IC50) was found to be 530 nM and the hNE/PPE selectivity was determined as 98.

For `CCCCCCCC[C@@H]1NC(=O)[C@@H]2CCCN2C(=O)[C@H]2CCCN2C(=O)[C@H](CO)NC(=O)[C@H](CCCCN)NC(=O)[C@H](CCC(N)=O)NC(=O)[C@@H]2CCCN2C(=O)[C@@H]2CCCN2C(=O)[C@H]([C@@H](C)CC)NC(=O)[C@H](CO)NC(=O)[C@H](C)NC(=O)[C@H]([C@@H](C)O)NC(=O)[C@H](CCC(=O)O)NC1=O` [Example 3, Cyclo(-OctGly-Glu-Thr-Ala-Ser-Ile-Pro-Pro-Gln-Lys-Ser-^DPro-Pro-)] (cyclo([Gly(octyl)]ETASIPPQKS[dP]P)), in test [1], the IC50 is 5.5 nM. Besides, on human proteinase 3, the IC50 turned out to be 1440 nM and the hNE/hPr3 selectivity was determined as 262. Moreover, in test [2], the IC50 came to 790 nM and the hNE/PPE selectivity was determined as 144.

As to `CCCCCCCC[C@@H]1NC(=O)[C@@H]2CCCN2C(=O)[C@H]2CCCN2C(=O)[C@H]([C@@H](C)O)NC(=O)[C@H](CCCCN)NC(=O)[C@H](CCC(N)=O)NC(=O)[C@@H]2CCCN2C(=O)[C@@H]2CCCN2C(=O)[C@H]([C@@H](C)CC)NC(=O)[C@H](CO)NC(=O)[C@H](C)NC(=O)[C@H]([C@@H](C)O)NC(=O)[C@H](CCC(=O)O)NC1=O` [Example 4, Cyclo(-OctGly-Glu-Thr-Ala-Ser-Ile-Pro-Pro-Gln-Lys-Thr-^DPro-Pro-)] (cyclo([Gly(octyl)]ETASIPPQKT[dP]P)), the IC50 in test [1] stood at 7.9 nM; at human proteinase 3, 2150 nM; in test [2], 2750 nM. The hNE/hPr3 selectivity on human proteinase 3 came out at 272. Moreover, the hNE/PPE selectivity in test [2] is 348.

Turning to `CC[C@H](C)[C@@H]1NC(=O)[C@H](CO)NC(=O)[C@H](C)NC(=O)[C@H]([C@@H](C)O)NC(=O)[C@H](CCc2ccc(O)cc2)NC(=O)[C@H](CCCNC(=N)N)NC(=O)[C@@H]2CCCN2C(=O)[C@H]2CCCN2C(=O)[C@H](Cc2ccc(O)cc2)NC(=O)[C@H](CCCCN)NC(=O)[C@H](CCC(N)=O)NC(=O)[C@@H]2CCCN2C(=O)[C@@H]2CCCN2C1=O` [Example 5, Cyclo(-Arg-hTyr-Thr-Ala-Ser-Ile-Pro-Pro-Gln-Lys-Tyr-^DPro-Pro-)] (cyclo(R[hTyr]TASIPPQKY[dP]P)), the IC50 in test [1] turned out to be 12.7 nM. Moreover, at human proteinase 3, the IC50 is 1710 nM and the hNE/hPr3 selectivity stood at 135. For the same compound, in test [2], the IC50 was determined as 1750 nM and the hNE/PPE selectivity is recorded as 138.

Source of the values: US10723765B2, “Beta-hairpin peptidomimetics as selective elastase inhibitors” (POLYPHOR AG, priority 2013, dated 2020).
